Assay results as given in PubChem BioAssay (NCI).
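Cultured in 96-well plates, cells were exposed to test compound for 48 hours across five concentrations. TGI: concentration producing complete growth inhibition.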

Legend:
Test in all cases: NCI tumour cell line growth inhibition, 48 h
786-0 renal = test system: 786-0 renal
A498 renal = test system: A498 renal
A549 NSCLC = test system: A549 NSCLC
ACHN renal = test system: ACHN renal
BT-549 breast = test system: BT-549 breast
CAKI-1 renal = test system: CAKI-1 renal
CCRF-CEM leukemia = test system: CCRF-CEM leukemia
COLO 205 colon = test system: COLO 205 colon
DU-145 prostate = test system: DU-145 prostate
EKVX NSCLC = test system: EKVX NSCLC
HCT-116 colon = test system: HCT-116 colon
HCT-15 colon = test system: HCT-15 colon
HL-60(TB) leukemia = test system: HL-60(TB) leukemia
HOP-62 NSCLC = test system: HOP-62 NSCLC
HOP-92 NSCLC = test system: HOP-92 NSCLC
HS 578T breast = test system: HS 578T breast
HT29 colon = test system: HT29 colon
IGROV1 ovarian = test system: IGROV1 ovarian
K-562 leukemia = test system: K-562 leukemia
KM12 colon = test system: KM12 colon
LOX IMVI melanoma = test system: LOX IMVI melanoma
M14 melanoma = test system: M14 melanoma
MALME-3M melanoma = test system: MALME-3M melanoma
MCF7 breast = test system: MCF7 breast
MDA-MB-231 breast = test system: MDA-MB-231 breast
MDA-MB-435 = test system: MDA-MB-435
MDA-N = test system: MDA-N
MOLT-4 leukemia = test system: MOLT-4 leukemia
NCI-H226 lung = test system: NCI-H226 lung
NCI-H23 lung = test system: NCI-H23 lung
NCI-H460 lung = test system: NCI-H460 lung
NCI-H522 lung = test system: NCI-H522 lung
NCI/ADR-RES ovarian = test system: NCI/ADR-RES ovarian
OVCAR-3 ovarian = test system: OVCAR-3 ovarian
OVCAR-4 ovarian = test system: OVCAR-4 ovarian
OVCAR-5 ovarian = test system: OVCAR-5 ovarian
OVCAR-8 ovarian = test system: OVCAR-8 ovarian
PC-3 prostate = test system: PC-3 prostate
RPMI-8226 leukemia = test system: RPMI-8226 leukemia
RXF 393 renal = test system: RXF 393 renal
SF-268 CNS = test system: SF-268 CNS
SF-295 CNS = test system: SF-295 CNS
SF-539 CNS = test system: SF-539 CNS
SK-MEL-2 melanoma = test system: SK-MEL-2 melanoma
SK-MEL-28 melanoma = test system: SK-MEL-28 melanoma
SK-MEL-5 melanoma = test system: SK-MEL-5 melanoma
SK-OV-3 ovarian = test system: SK-OV-3 ovarian
SN12C renal = test system: SN12C renal
SNB-19 CNS = test system: SNB-19 CNS
SNB-75 CNS = test system: SNB-75 CNS
SR leukemia = test system: SR leukemia
SW-620 colon = test system: SW-620 colon
T-47D breast = test system: T-47D breast
TK-10 renal = test system: TK-10 renal
U251 CNS = test system: U251 CNS
UACC-257 melanoma = test system: UACC-257 melanoma
UACC-62 melanoma = test system: UACC-62 melanoma
UO-31 renal = test system: UO-31 renal

Measured: TGI

COC(=O)C1C(OS(=O)(=O)O)CCC2CN3CCc4c([nH]c5ccccc45)C3CC21 (stereo not drawn)
> 100 µM: all assays above
